Experimental data from patent publication US6767561B2, “DNA polymerase inhibitors, mikanolide and dihydromikanolide” (Societe de Conseils de Recherches et d'Applications …, priority 1999, dated 2004).

Experiments:
HT29 cells = experiment: Incorporation of tritiated thymidine into the DNA of HT29 cells in exponential growth phase (in vitro); type: cell-based, human; settings: 1 hour treatment
Description: (§1) The cell lines DU145 (human prostate cancer cells), HT29 (cancer of the colon) and Mia-PaCa2 (human pancreatic cancer cells) were acquired from the American Tissue Culture Collection (Rockville, Md., USA).
Incorporation of Thymidine Labelled With Tritium into DNA Cells in Exponential Growth Phase (in vitro)
HT29 cells are seeded in 96-well plates (culturPlate-96, Packard; 4000 cells per well) with the medium (DMEM, Gibco BRL complemented with 10% foetal calf serum, Gibco BRL). On day 3, the medium is removed and replaced by medium containing the tritiated thymidine (5′-thymidine TRK.328, 1 mCi, 0.6 μCi/wells, Amersham) with or without the products (range of 100 to 0.19 μg/ml per ½ dilutions). The treatments are carried out for 1 hour. The medium is then removed and the cells are washed twice with 200 μl of PBS (Gibco BRL). The lysis solution (SDS 1.25%; EDTA 5 mM) is added and left for 10 minutes at ambient temperature, then 75 μl of scintillating liquid (microscint® 40, Packard) is added. Reading is carried out using Topcount® (Packard). The results are expressed as a percentage of the inhibition of incorporation of the labelled nucleotide in the sample with respect to the control (100−(DPM of the sample/DPM control)*100).

[1] = system: Klenow DNA polymerase enzyme without exonuclease; experiment: Incorporation of cytosine labelled with 32P into a DNA in the presence of DNA polymerase in an acellular system; type: biochemical; settings: 100 μg/ml, [32P]dCTP incorporation vs control
Description: Incorporation of Cytosine Labelled With ^32P into a DNA in the Presence of DNA Polymerase in an Acellular System
Labelling of the DNA is carried out on a DNA fragment which incorporates nucleotides by way of the activity of the DNA polymerase enzyme. From these nucleotides, the dCTP is labelled by radioactive phosphorus (^32P).
Plasmidic DNA (pc DNA 3, invitrogen, Netherlands) is diluted to a concentration of 2 ng in 45 μl of TE solution (10 MM Tris-HCl; pH 8.0; 1 mM EDTA) then denatured by heating at 100° C. for 10 minutes before being replaced directly in ice. The denatured DNA is placed in the tube which contains the buffer solution of dATP, dGTP, dTTP, the Klenow DNA polymerase enzyme without exonuclease and the random primers (Rediprime II random prime labelling system, RPN 1633, RPN 1634, Amersham pharmacia biotech). 2 μl of Redivue [^32P]dCTP ([…] 5′(α-^32P), specific activity 250 μCi, Amersham), is added to start the reaction. The reaction is carried out in the presence or absence of the compound to be tested for 10 minutes at 37° C. or 1 hour at ambient temperature. […] 10 μl is counted into 5 ml of scintillor (Instagel® plus and Packard scintillation counter). The results are expressed as a percentage of the inhibition of incorporation of the labelled nucleotide in the sample with respect to the control (100−(DPM of the sample/DPM control)*100).

DU145 human tumor cells = experiment: Cell proliferation test (WST1), DU145; type: cell-based; settings: DU-145, 96 hours treatment, read-out: Inhibitory concentration IC50
Description: as §1
(§2) The cells placed in 80 μl of Dulbecco's modified Eagle medium (Gibco-Brl, Cergy-Pontoise, France) completed with 10% foetal calf serum inactivated by heating (Gibco-Brl, Cergy-Pontoise, France), 50000 units/l of penicillin and 50 mg/l streptomycin (Gibco-Brl, Cergy-Pontoise, France), and 2 mM of glutamine (Gibco-Brl, Cergy-Pontoise, France) were seeded on a 96-well plate on day 0. The cells were treated on day 1 for 96 hours with increasing concentrations of each of the compounds to be tested at 50 μg/ml. At the end of this period, quantification of cell proliferation is evaluated by a colorimetric test based on the cleavage of the tetrazolium salt WST1 by mitochondrial dehydrogenases in viable cells leading to the formation of formazan (Boehringer Mannheim, Meylan, France). These tests are carried out in duplicate with 8 determinations per concentration tested. For each compound to be tested, the values included in the linear part of the sigmoid were retained for linear regression analysis and used to estimate the inhibitory concentration IC50. The products are solubilized in dimethylsulphoxide (DMSO) at 10^−2 M and finally used in culture with 0.5% DMSO.

[2] = system: Mia-Paca2 human tumor cells; experiment: Cell proliferation test (WST1), Mia-PaCa2; type: cell-based; settings: Mia-Paca2, 96 hours treatment, read-out: Inhibitory concentration IC50
Description: as §1, §2

SMILES	Remaining thymidine incorporation (dpm sample/dpm control) (HT29 cells; 25 μg/ml)	Remaining thymidine incorporation (dpm sample/dpm control) (HT29 cells; 50 μg/ml)	Remaining thymidine incorporation (dpm sample/dpm control) (HT29 cells; 100 μg/ml)	Inhibition of incorporation (%) [1]	IC50 (DU145 human tumor cells)	IC50 [2]
C=C1C(=O)O[C@H]2C[C@]3(C)O[C@H]3[C@@H]3O[C@@H]3C3=C[C@@H](OC3=O)[C@H]12 [Mikanolide, mikanolide]	1.04	0.61	0.53	79.6 (n = 3; standard deviation σ = 11.0) %	15 µM	3000 nM
C[C@H]1C(=O)O[C@H]2C[C@]3(C)O[C@H]3[C@@H]3O[C@@H]3C3=C[C@@H](OC3=O)[C@@H]21 [Dihydromikanolide, dihydromikanolide]	0.58	0.29	0.19	73 (n = 5; standard deviation σ = 7) %		
